# Laboratory results published in US4235666A, “1,2,3,4,4a,9a-Hexahydro-9,10-anthracene-dione, its preparation and its application to the delignification of lignocellulosic materials” (Produits Chimiques Ugine Kuhlmann, priority 1978, dated 1980).
# Entries after “also recorded” stand apart in the source; their conditions may differ. Read-outs that look alike come from different tables or passages of the source.
# Tests used:
# Design in all cases: species or system moorland maritime pine
# [1] = Mechanical characteristics of raw pulps from caustic soda cooking, refined at 40° SR; details: for Index of rupture / Index of tearing / Length of rupture / Resistance to bending: 0.5% adjuvant, 40° SR
# Procedure: (§1) The raw pulps for reference and those obtained with 0.5% of adjuvant in the cooking are refined in a Jokro mill.
# (§2) Sheets for physical tests are produced on a Rapid Kothen mold. Their weight per m^2 is about 70 g.
# (§3) The following mechanical characteristics are determined:
# (§4) Length of break: AFNOR NFQ 03004 standard
# (§5) Index of splitting or cracking: AFNOR NFQ 03014 standard
# (§6) Tearing index: AFNOR NFQ 03011 standard
# (§7) Resistance to bending or folding: AFNOR NFQ 03001 standard
# The mechanical characteristics of the raw or unwashed pulps obtained after heating with caustic soda in the presence of 0.5% of adjuvant are compared with those of a conventional Kraft pulp (Table IV).
# Mechanical characteristics of raw pulps refined at
# 40° SR caustic soda cooking with 0.5% of adjuvant
# [2] = Mechanical characteristics of crude pulps from Kraft cooking, refined at 40° SR; details: for Index of rupture / Index of tearing / Length of rupture / Resistance to bending: 0.5% adjuvant, 40° SR
# Procedure: as §1, §2, §3, §4, §5, §6, §7
# After cooking, the same operations as those described in Example 9 are carried out on the pulps and the cooking liquors.
# A comparative test with 0.5% of anthraquinone is effected under the same operational conditions as in Example 11. The mechanical characteristics of the pulps obtained are compared with those of a Kraft pulp for reference (Table VII).
# Mechanical characteristics of the crude pulps refined at
# 40° SR Kraft cooking with 0.5% of adjuvant
# [3] = Caustic soda cooking (delignification) with adjuvant; details: for Kappa index: NFT 12018
# Procedure: Shavings of moorland maritime pine are subjected to heating in an autoclave with a caustic soda liquor. The cooking conditions are as follows:
# Amount of caustic soda: 22% by weight with respect to the dry vegetable material.
# Ratio of liquor/vegetable material: 4
# Temperature of cooking: 170° C.
# Time in which the cooking temperature
# Time of cooking: 90 minutes
# Amount of adjuvant: 0-0.1%-0.5%-1% by weight with respect to the dry vegetable material
# After cooking, the pulps obtained are washed, disintegrated on a 3 mm grid (Vewerk grader or sorter).
# The crude yield and the yield of sorted pulp are determined on the pulps, and the Kappa index according to French standard NFT 12018 are determined on the raw pulps.
# The pH and the consumption of caustic soda are determined on the liquors after cooking.
# A comparative test with 0.5% of anthraquinone was carried out under the same operational conditions as in Example 9.
# [4] = Kraft cooking (caustic soda-sulfuric liquor) with adjuvant
# Procedure: Shavings from moorland maritime pine are subjected to cooking in an autoclave with a caustic soda-sulfuric liquor under the following conditions:
# Proportion of active alkali: 22% by weight with respect to the dry vegetable material,
# Sulfidity: 25% with respect to the active alkali,
# Ratio liquor/vegetable material: 4
# Temperature of heating: 170° C.
# Time taken to arrive at the heating temperature: 90 min.,
# Time of heating: 120 min.
# Amount of adjuvant: 0-0.1%-0.5%-1% by weight with respect to the dry vegatable material.
# After cooking, the same operations as those described in Example 9 are carried out on the pulps and the cooking liquors. […]
smiles,measurement,setting,value
"O=C1c2ccccc2C(=O)C2CCCCC12 (stereo not drawn) [6 HAD, 1,2,3,4,4a,9a-hexahydro-9,10-anthracene-dione]",Index of rupture,[1],4.82
same,Index of tearing,[1],922
same,Length of rupture,[1],"7,030 m"
same,Resistance to bending,[1],"1,846"
same,quality / mechanical properties of pulps,[1]; compared with conventional Kraft pulp,very near to the quality of the conventional Kraft pulp; also recorded: mechanical properties similar to those of Kraft pulps with a similar yield and Kappa indexes
same,mechanical characteristics / degradation of pulps,[2],more favorable than that of anthraquinone
same,Index of rupture,[2]; Kraft cooking,5.55
same,Index of tearing,[2]; Kraft cooking,847
same,Length of rupture,[2]; Kraft cooking,"7,000 m"
same,Resistance to bending,[2]; Kraft cooking,"1,917"
same,effect on delignification,[3],has the same effect as the anthraquinone
same,% Caustic soda consumed/wood,[3]; 0.1% adjuvant,16.9%
same,Classified yield,[3]; 0.1% adjuvant,45.7%
same,Crude yield,[3]; 0.1% adjuvant,46.2%
same,Kappa index,[3]; 0.1% adjuvant,51.7
same,% Caustic soda consumed/wood,[3]; 0.5% adjuvant,17.9%
same,Classified yield,[3]; 0.5% adjuvant,45.5%
same,Crude yield,[3]; 0.5% adjuvant,45.8%
same,Kappa index,[3]; 0.5% adjuvant,33.4
same,% Caustic soda consumed/wood,[3]; 1% adjuvant,18.1%
same,Classified yield,[3]; 1% adjuvant,45.5%
same,Crude yield,[3]; 1% adjuvant,45.7%
same,Kappa index,[3]; 1% adjuvant,28.0
same,effect on delignification,"[3]; listed as 1,2,3,4,4a,9a-hdxahydro9,10-anthracene-dione",accelerates the delignification and makes it more selective
same,"effect on delignification, Kappa index and yield",[4],"enables the Kappa index of the pulps to be appreciably lowered without alteration of the mechanical properties; also recorded: With identical Kappa indexes, yields greater than those of the Kraft process referred to can be obtained; also recorded: increases the kinetics and the selectivity of the delignification; also recorded: decrease of the Kappa index of the pulps without reduction of the yield of the cooking"
same,% Effective alkali consumed/wood,[4]; 0.1% adjuvant,17.5%
same,Classified yield,[4]; 0.1% adjuvant,44.3%
same,Crude yield,[4]; 0.1% adjuvant,44.6%
same,Kappa index,[4]; 0.1% adjuvant,27.4
same,% Effective alkali consumed/wood,[4]; 0.5% adjuvant,17.9%
same,Classified yield,[4]; 0.5% adjuvant,44.5%
same,Crude yield,[4]; 0.5% adjuvant,44.8%
same,Kappa index,[4]; 0.5% adjuvant,24.2
same,% Effective alkali consumed/wood,[4]; 1% adjuvant,18.2%
same,Classified yield,[4]; 1% adjuvant,44.3%
same,Crude yield,[4]; 1% adjuvant,44.4%
same,Kappa index,[4]; 1% adjuvant,22.0
"O=C1c2ccccc2C(=O)c2ccccc21 [Anthraquinone, anthraquinone, reference compound]",Index of rupture,[1],5.07
same,Index of tearing,[1],813
same,Length of rupture,[1],"7,230 m"
same,Resistance to bending,[1],945
same,mechanical characteristics / degradation of pulps,[2]; Kraft cooking,inferior mechanical characteristics; also recorded: a relatively large degradation is observed
same,Index of rupture,[2]; Kraft cooking,4.48
same,Index of tearing,[2]; Kraft cooking,808
same,Length of rupture,[2]; Kraft cooking,"5,850 m"
same,Resistance to bending,[2]; Kraft cooking,905
same,% Caustic soda consumed/wood,[3]; 0.5% adjuvant,17.5%
same,Classified yield,[3]; 0.5% adjuvant,46.2%
same,Crude yield,[3]; 0.5% adjuvant,46.8%
same,Kappa index,[3]; 0.5% adjuvant,32.2
same,% Effective alkali consumed/wood,[4]; 0.5% adjuvant,17.4%
same,Classified yield,[4]; 0.5% adjuvant,43.8%
same,Crude yield,[4]; 0.5% adjuvant,44%
same,Kappa index,[4]; 0.5% adjuvant,24.3
